Results published in patent US10973850B2, “Composition comprising tricalcium phosphate and gelatin for use in a method for the treatment of dyspepsia and related disorders” (S.B.M. S.R.L., priority 2015, dated 2021).

Assay: Protective effect: time to perforation of a sheet of wheat starch exposed to concentrated HCl
Conditions: end point a clear-cut hole
Method: The barrier-like effect of gelatin was experimentally assessed. A Sheet of wheat starch was exposed to a concentrated solution of HCl. The protective action was measured as an extension of time to perforation in comparison to control. The end consisted of a clear-cut hole.
The new threshold matched the potentially dangerous HCl concentration in the stomach at the above-mentioned ration, corresponding to about 6 parts of gelatin to 1 part of TCP.

Q: With `O=P([O-])([O-])[O-].O=P([O-])([O-])[O-].[Ca+2].[Ca+2].[Ca+2]` [TCP, tricalcium phosphate] as the molecule, how does the “protective action, extension of time to perforation in comparison to control” value read?
A: almost equally effective
